How the values were obtained:
[1] = pharmacokinetics and oral bioavailability in dogs; format: in vivo; conditions: male, beagle, dog, plasma, 1 mg/kg IV
Protocol: Blood samples were collected from the jugular vein of each animal at 0 (pre-dose), 5, 15, and 30 minutes and 1, 2, 4, 8, 12, and 24 hours following intravenous administration and at 0 (pre-dose), 15 and 30 minutes and 1, 2, 4, 8, 12, and 24 hours following oral gavage administration. The amount of compound (1-1) present in each sample was detected using a qualified LC-MS/MS method with a lower limit of quantification of 0.5 ng/mL. The area under the plasma concentration-time curve (AUC) was determined by use of the linear trapezoidal rule up to the last measurable concentration without extrapolation of the terminal elimination phase to infinity. The elimination half-life (t1/2) was calculated by least-squares regression analysis of the terminal linear part of the log concentration-ime curve. The maximum plasma concentration (Cmax) and the time to Cmax (tmax) were derived directly from the plasma concentration data. The oral bioavailability (F) was calculated by dividing the dose normalized AUC after oral administration by the dose normalized AUC after intravenous administration and reported as percentages (%).

[2] = oral exposure in the rat (pharmacokinetics); format: in vivo, Hsd:Sprague Dawley rats; conditions: 1 mg/kg intravenous
Protocol: The oral bioavailability of three formulations of solid dispersions of compound (1-1) was determined in rats. The three dispersions chosen were the 25% dispersion of compound (1-1) in PVP, the 25% dispersion of compound (1-1) in HPMCAS-MG, and the 50% dispersion of compound (1-1) in HPMCAS-MG. The animals used in the study were Specific Pathogen Free (SPF) Hsd:Sprague Dawley rats obtained from the Central Animal Laboratory at the University of Turku, Finland. The rats were originally purchased from Harlan, The Netherlands. The rats were female and were ten weeks of age, and 12 rats were used in the study. The animals were housed in polycarbonate Makrolon II cages (three animals per cage), the animal room temperature was 21+/−3° C., the animal room relative humidity was 55+/−15%, and the animal room lighting was artificial and was cycled for 12 hour light and dark periods (with the dark period between 18:00 and 06:00 hours). Aspen chips (Tapvei Oy, Estonia) were used for bedding, and bedding was changed at least once per week. Food and water was provided prior to dosing the animals but was removed during the first two hours after dosing.
The oral dosing solutions containing the 25% dispersion of compound (1-1) in PVP, the 25% dispersion of compound (1-1) in HPMCAS-MG, and the 50% dispersion of compound (1-1) in HPMCAS-MG were prepared by adding a pre-calculated amount of sterile water for injection to containers holding the dispersion using appropriate quantities to obtain a concentration of 0.75 mg/mL of compound (1-1). The oral dosing solutions were subjected to vortex mixing for 20 seconds prior to each dose. The dosing solution for intravenous administration contained 0.25 mg/mL of compound (1-1) and was prepared by dissolving 5 mg of compound (1-1) in a mixture containing 4 mL of polyethylene glycol with an average molecular weight of 400 Da (PEG400), 4 mL of ethanol (96% purity), and 12 mL of sterile water for injection. The dosing solution containing the 25% dispersion of compound (1-1) in PVP was used within 30 minutes after the addition of water. The dosing solutions containing the 25% dispersion of compound (1-1) in HPMCAS-MG and the 50% dispersion of compound (1-1) in HPMCAS-MG were used within 60 minutes of after the addition of water. A dosing volume of 4 mL/kg was used to give dose levels of compound (1-1) of 1 mg/kg for intravenous administration and 3 mg/kg for oral administration.
Blood samples of approximately 50 μL were collected into Eppendorf tubes containing 5 μL of ethylenediaminetetraacetic acid (EDTA) solution at time points of 0.25, 0.5, 1, 2, 4, 8, 12, and 24 hours after dosing, with each sample collected within a window of 5 minutes from the prescribed time point. From each sample, 20 μL of plasma was obtained and stored at dry ice temperatures for analysis. Analysis of each sample for the concentration of compound (1-1) was performed using a validated liquid chromatography tandem mass spectrometry (LC-MS/MS) method with a lower limit of quantitation of 0.5 ng/mL.
Pharmacokinetic parameters were calculated with the Phoenix WinNonlin software package (version 6.2.1, Pharsight Corp., CA, USA) with standard noncompartmental methods. The elimination phase half-life (t1/2) was calculated by least-squares regression analysis of the terminal linear part of the log concentration-time curve. The area under the plasma concentration-time curve (AUC) was determined by use of the linear trapezoidal rule up to the last measurable concentration and thereafter by extrapolation of the terminal elimination phase to infinity. The mean residence time (MRT), representing the average amount of time a compound remains in a compartment or system, was calculated by extrapolating the drug concentration profile to infinity. The maximum plasma concentration (Cmax) and the time to Cmax (tmax) were derived directly from the plasma concentration data. […]

[3] = female, Hsd:Sprague Dawley, plasma

Cc1sc2c(c1C)C(c1ccc(Cl)cc1)=N[C@@H](CC(=O)Nc1ccc(O)cc1)c1nnc(C)n1-2 [Compound (1-1), 2-[(6S)-4-(4-chlorophenyl)-2,3,9-trimethyl-6H-thienol[3,2f]-[1,2,4]triazolo[4,3-a][1,4]diazepin-6-yl]-N-(4-hydroxyphenyl)acetamide dihydrate]
half-life [1]: 1.5 h
Cmax ([1]; average of three dogs): 769 ng/mL
Tmax ([1]; average of three dogs): 4.98 min
AUC ([1]; to last measurable concentration): 889 ng·h/mL
CI/F [2]: 13.4 mL/min/kg
Cmax [2, 3]: 730 ng/mL
MRT [2, 3]: 7.4 h
Tmax [2, 3]: 0.25 h
half-life [2, 3]: 8.5 h
AUC ([2]; female, Hsd:Sprague Dawley, plasma, extrapolated to infinity): 1240 ng·h/mL

From patent publication US20140107107A1, “PHARMACEUTICAL FORMULATION CONTAINING THIENOTRIAZOLODIAZEPINE COMPOUNDS” (Oncoethix SA, priority 2012, published 2014)
